Laboratory results taken from patent US20250197864A1, “LNCRNA TRANSCRIPTS IN MELANOMAGENESIS” (The Regents of the University of California, priority 2021, published 2025).

Legend:
D04 xenograft tumors [1] = assay: Intratumoral in vivo treatment, D04 xenograft; conditions: D04 tumors in mice; 400 μg twice a week into the tumor mass, no transfection reagent; vs non-targeting control ASO
Protocol: (§1) In 4- to 6-week-old NOD.Cg-Prkdcscid Il2rgtm1Wjl/SzJ mice D04, cells in 150 1 of PBS and 501 of Matrigel were subcutaneously injected on the right posterior dorsal flank of 4- to 6-week-old homozygous nude Foxn1nu/Foxn1nu mice (Stock.no 007850). Mice were obtained from JAX®. Tumor size was measured using a digital caliper and the formula 0.5×(length×(width^2)) was used to calculate tumor volume. Mice were treated twice a week with 400 μg of (SEQ ID NO: 16) or non-targeting control-ASO. No transfection reagent was co-applied. ASO injections were applied into the tumor mass. Mice were weighted twice a week and observed for signs of distress or disorder.

D04 xenograft tumors [2] = assay: Intravenous in vivo treatment, D04 xenograft; conditions: D04 tumors in mice; 700 μg twice a week, intravenous tail vein, no transfection reagent; vs non-targeting control ASO
Protocol: as §1, with “mice, D04” for “mice D04,”, “50 1” for “501”, “right and left” for “right”, “700” for “400”, “intravenously as tail vein injections.” for “into the tumor mass.”

[3] = test system: sarcoma cell line SK-LMS-1; assay: Cell viability assay (ATP quantitation); format: cell-based; conditions: SK-LMS-1 sarcoma; 50 nM, 120 hrs; Lipofectamine3000 2 ul/ml; vs non-targeting control ASO
Protocol: (§2) EsiRNA, siRNA and ASO GapmeRs were transfected in a final concentration of 50 nM unless mentioned otherwise and the transfection reagent Lipofectamine 3000 (2 ul/ml) was added according to the manufacturer's instructions.
(§3) Dependent on cell doubling time, 0.7-2×10^^3 cells were seeded in 96 well plates. 1 day after seeding cells were incubated in media with oligonucleotide concentration and/or MEKi and transfection reagent. 3 (synergy experiments) or 5 (solely ASO) days after transfection Total luminescence was measured on the SynergyHT plate reader (BioTek) using Gen5 software.
(§4) Cell viability was compared to treatment with non-targeting control ASO-treatment. Lipofectamine3000 concentration was 2 ul/ml.

[4] = test system: hepatocellular carcinoma cell line HepG2; assay: Cell viability assay (ATP quantitation); format: cell-based; conditions: 50 nM, 120 hrs, Lipofectamine3000 2 ul/ml, vs non-targeting control ASO
Protocol: as §2, §3, §4

[5] = test system: WM3211 melanoma cell line; assay: Cell viability assay (ATP quantitation); format: cell-based, human; conditions: 50 nM, 5 days (120 hrs), vs non-targeting control
How it was run: (§5)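 Seeded at 0.7-2×10^3 cells/well, cells were treated one day later with oligonucleotides (typically 50 nM, Lipofectamine 3000) and/or MEK inhibitor. Total luminescence was read 3 days (synergy experiments) or 5 days (ASO alone) after transfection.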

[6] = test system: WM3629 melanoma cell line; assay: Cell viability assay (ATP quantitation); format: cell-based, human; conditions: 50 nM, 5 days (120 hrs), vs non-targeting control
How it was run: as §5

[7] = test system: Sk-Mel-2 melanoma cell line; assay: Cell viability assay (ATP quantitation); format: cell-based, human; conditions: 50 nM, 5 days (120 hrs), vs non-targeting control
How it was run: as §5

[8] = test system: Hs852.T primary melanoma cell line; assay: Cell viability assay (ATP quantitation); format: cell-based, human; conditions: 50 nM, 5 days (120 hrs), vs non-targeting control
How it was run: as §5

D04 melanoma cell line = assay: Cell viability assay (ATP quantitation); format: cell-based, human; conditions: 50 nM, 5 days (120 hrs), vs non-targeting control
How it was run: as §5

[9] = test system: WM1366 melanoma cell line; assay: Cell viability assay (ATP quantitation); format: cell-based, human; conditions: 50 nM, 5 days (120 hrs), vs non-targeting control
How it was run: as §5

[10] = test system: Sk-Mel-28 melanoma cell line; assay: Cell viability assay (ATP quantitation); format: cell-based, human; conditions: 50 nM, 5 days (120 hrs), vs non-targeting control
How it was run: as §5

MM415 melanoma cell line = assay: Cell viability assay (ATP quantitation); format: cell-based, human; conditions: 50 nM, 5 days (120 hrs), vs non-targeting control
How it was run: as §5

[11] = test system: AV5 primary melanoma cell line; assay: Cell viability assay (ATP quantitation); format: cell-based, human; conditions: 50 nM, 5 days (120 hrs), vs non-targeting control
How it was run: as §5

VMM39 melanoma cell line = assay: Cell viability assay (ATP quantitation); format: cell-based, human; conditions: 50 nM, 5 days (120 hrs), vs non-targeting control
How it was run: as §5

TGCGCGGCGGAAAGAA (QIAGEN GapmeR, modification pattern not given here) [SEQ ID NO: 16, ASO targeting AC004540.4 (TRASH), intronic region of Isoform 2; used in vivo]
tumor growth (D04 xenograft tumors [1]): significantly reduced tumor growth | tumor growth (D04 xenograft tumors [2]): significantly reduced tumor growth | cell viability decrease [3]: significant cell viability decrease | cell viability decrease [4]: significant cell viability decrease | cell viability decrease [5]: significant cell viability decrease | cell viability decrease [6]: significant cell viability decrease | cell viability decrease [7]: significant cell viability decrease | cell viability decrease [8]: significant cell viability decrease | cell viability decrease (D04 melanoma cell line): significant cell viability decrease | cell viability decrease [9]: significant cell viability decrease | cell viability decrease [10]: significant cell viability decrease | cell viability decrease (MM415 melanoma cell line): significant cell viability decrease | cell viability decrease [11]: significant cell viability decrease | cell viability decrease (VMM39 melanoma cell line): significant cell viability decrease
